Entries after “also recorded” stand apart in the source; their conditions may differ. Where two headings read alike, the source gives them in different places.
Legend:
[1] = target: S. mansoni p97 (Smp_018240) (Schistosoma mansoni, UniProt G4M0P7); experiment: biochemical; details: for IC50: read-out: S. mansoni IC50
Procedure: E. coli BL21 (DE3) containing the desired plasmid were grown in LB medium containing […] kanamycin while shaking at 37 °C to an OD600 of 0.6–0.8. The temperature was reduced to 18°C and 0.8 mM isopropyl-beta-D-thiogalactopyranoside (IPTG) was added. The bacterial culture was harvested 16hr later by centrifugation. The resulting pellet was suspended in 60 mL lysis buffer/2L bacterial culture [20 mM Tris (pH 7.4), 300 mM NaCl, 5 mM MgCl2, 20 mM imidazole, 1% Triton X-100, 1 mg/mL lysozyme, 10% glycerol, 3 mM β-mercaptoethanol, 0.2 mM PMSF, and protease inhibitor tablet (Roche)]. […] The lysate was centrifuged at 40,000 × rpm for 35 min at 4°C. The resulting supernatant was incubated with Ni-NTA beads equilibrated to lysis buffer for 1 hr at 4°C before being loaded onto a gravity column. The bead bed was washed with wash buffer [20 mM Tris (pH 7.4), 500 mM NaCl, 5 mM MgCl2, 40 mM imidazole, 0.05% Triton X-100, 10% glycerol, 3 mM β-mercaptoethanol, 0.2 mM PMSF, 0.001 mg/mL Aprotinin, and 0.002 mg/mL Leupeptin], then eluted in the same buffer with 250 mM imidazole in wash buffer. Fractions containing p97 were concentrated using Pierce Protein Concentrators (100k MWCO) and loaded onto a gel-filtration column (Superdex 200PG) and eluted using SEC buffer [20 mM Tris (pH 7.4), 180 mM NaCl, 5 mM MgCl2, and 10% glycerol] at 0.5 mL/min flow rate on a BioRad NGC Chromatography System. Fractions corresponding to an apparent molecular weight of 500 – 600 kDa were collected and analyzed by 4–20% SDS/PAGE to evaluate purity. Concentration was determined using a BSA standard. Fractions containing purified protein were aliquoted, snap frozen in liquid nitrogen, and stored at −80 °C until use.
For manual ATP consumption assays, 1 μM p97 was incubated with 1% DMSO or inhibitor (1% DMSO final) in assay buffer [50 mM Tris (pH 7.5), 20 mM MgCl2, 1 mM EDTA, 0.5 mM tris(2-carboxyethyl)phosphine (TCEP)] for 5 minutes prior to the addition of 20 μM ATP in a 384-well plate for a total reaction volume of 10 μL, and a final concentration of 500nM enzyme and 10 μM ATP. The reaction was allowed to proceed for 50 minutes at room temperature before adding equivalent volume of Kinase-Glo Plus reagent (Promega), and a further incubation of 10 minutes in the dark.
IC50 values were calculated using GraphPad Prism.

[2] = test system: adult S. mansoni worms; experiment: Treatment of adult S. mansoni worms in culture with inhibitors (attachment to tissue culture substrate, morphology; single 10 μM and dose-response EC50); assay type: cell-based, Schistosoma mansoni; details: for EC50: Schistosoma mansoni, read-out: S. mansoni EC50; for effect on adult worms: benzoxazole propiolamide series, treated 72 hours, monitored until D5; for effect on adult worms / time to detachment of adult worms in culture: 10 μM
Procedure: Adult S. mansoni (NMRI strain) (6–7 weeks post-infection) worms were harvested from infected female Swiss Webster mice by hepatic portal vein perfusion using 37°C DMEM (Mediatech, Manassas, VA), 8% Horse Serum, and heparin.
Roughly 5 adult worm pairs were placed in 3mL Basch medium in a 12-well culture vessel, and incubated at 37°C, 5% CO2 for the length of the experiment. Compound was administered at D0, D1, and D2, media and drug refreshed every 24 hr. Worms were then allowed to remain in culture until D5, where a final assessment of worm attachment to tissue culture substate was made by light microscopy. Observations on movement and morphology were also recorded. A negative control (0.1% DMSO) and positive control (PZQ; 10 μM in 0.1% DMSO) were included in each experiment, and each experiment was repeated in triplicate for validation. For compounds that caused complete detachment in replicate experiments, the treatment was expanded to three concentrations (10 μM, 5 μM, and 1 μM) following the same treatment schedule and controls as detailed above. […] Each titration experiment was performed in triplicate according to the treatment regimen described above, using DMSO and PZQ as appropriate controls. Morphologies and motility were assessed by light microscopy, and dose-response curves were calculated using the primary readout of parasite attachment to tissue culture substrate in GraphPad Prism. […]
[…] Values were calculated using Prism.

[3] = target: T1, H. sapiens p97 (P55072) (Homo sapiens, UniProt P55072); experiment: p97 ATPase activity, ATP consumption assay (Kinase-Glo), IC50 / counter screen; assay type: biochemical
T1 construct: 6xHis (C); made in house; host or cells: E. coli BL21 (DE3)

[4] = test system: S. mansoni vcp/p97 (Smp_018240); experiment: High-throughput screening (HTS) assay, Kinase-Glo, 10 μM single concentration; assay type: biochemical, Schistosoma mansoni; details: for Screen Inhibition: 10 μM compound, normalized to CB-5083, Fig. 4A; for inhibition of S. mansoni p97 function in the screen: high-throughput screen
Description: Kinase-Glo (Promega, part K1214) was purchased from Promega. Microtiter plates (384 wells) were purchased from Perkin Elmer. All chemicals included in the UTSW library were sourced from commercial sources [ChemDiv (150,000 compounds), ChemBridge (125,500), ComGenex (22,000), Prestwick Chemical, (1,100) and TimTec (500)] or UT Southwestern chemists (https://www.utsouthwestern.edu/research/core-facilities/high-throughput-screening/libraries/). For initial screening, compounds were dispensed by Echo 555 robot for a final concentration of 10 μM (0.2% DMSO). Luminescence was read by EnVision multimode plate reader (Perkin-Elmer). Assay conditions were consistent between manual and high-throughput assays [10 μM ATP, 50 mM Tris (pH 7.5), 20 mM MgCl2, 1 mM EDTA, 0.5 mM tris(2-carboxyethyl)phosphine (TCEP)]. The plates were then incubated for 50 min at room temperature before addition of Kinase-Glo reagent and further incubation in the dark for 10 minutes before reading luminescence. […] Hit compounds were validated using a dose-response curve (19.8 μM, 9.92 μM, 4.96 μM, 3.72 μM, 2.48 μM, 1,24 μM, 0.619 μM, 0.342 μM, 0.256 μM, 0.171 μM, 0.0854 μM, 0.0427 μM, and 0 μM) in triplicate. Compounds were also subjected to a counter screen using a dose-response curve against the full-length human p97 enzyme to determine preliminary selectivity.

[5] = test system: HepG2 cells; experiment: HepG2 cytotoxicity assay (Cell Titer Glo 2.0); assay type: cell-based, human; details: Homo sapiens
Procedure: HepG2 cells (ATCC) were plated at 2500 cells/well in 50 μL/well, dispersing cells using a 25g needle to break up clumps prior to plating. Plates were incubated for 24hr at 37C, 5% CO2. Following 24hr, 50 μL media containing 0.6% DMSO was added to a set of wells on one plate. The plate and Cell Titer Glo 2.0 reagent were brought to RT. A T=0 read was taken by adding 40 μL reagent/well, rocking the plate at 100 rpm for 2 min, then reading luminescence ~10 min later. […] 50 μL 2x concentrated compound was added to wells containing cells in 50 μL 24 hr after plating. Concentrations were tested in triplicate at following values: 30, 10, 3.3, 1.1, 0.37, 0.12, and 0.04 μM. Plates were incubated for 72 hr at 37C, 5% CO2. Following equilibration to room temperature, 40 μL undiluted reagent was added to each well, the plate rocked at 100 rpm for 2 min and then read for luminescent signal ~10 min later.
Values are plotted in excel and the 50% point determined by interpolation. Values were revisualized in Prism.

[6] = H. sapiens vs S. mansoni p97 IC50, Suppl. Fig. 11D
[7] = Smp97, re-tested screen compounds, 100 μM-1 nM, Fig. 4A
[8] = Hsp97, re-tested screen compounds, 100 μM-1 nM, Fig. 4A

Sequence of S. mansoni p97 (Smp_018240) (G4M0P7 entry or part of it): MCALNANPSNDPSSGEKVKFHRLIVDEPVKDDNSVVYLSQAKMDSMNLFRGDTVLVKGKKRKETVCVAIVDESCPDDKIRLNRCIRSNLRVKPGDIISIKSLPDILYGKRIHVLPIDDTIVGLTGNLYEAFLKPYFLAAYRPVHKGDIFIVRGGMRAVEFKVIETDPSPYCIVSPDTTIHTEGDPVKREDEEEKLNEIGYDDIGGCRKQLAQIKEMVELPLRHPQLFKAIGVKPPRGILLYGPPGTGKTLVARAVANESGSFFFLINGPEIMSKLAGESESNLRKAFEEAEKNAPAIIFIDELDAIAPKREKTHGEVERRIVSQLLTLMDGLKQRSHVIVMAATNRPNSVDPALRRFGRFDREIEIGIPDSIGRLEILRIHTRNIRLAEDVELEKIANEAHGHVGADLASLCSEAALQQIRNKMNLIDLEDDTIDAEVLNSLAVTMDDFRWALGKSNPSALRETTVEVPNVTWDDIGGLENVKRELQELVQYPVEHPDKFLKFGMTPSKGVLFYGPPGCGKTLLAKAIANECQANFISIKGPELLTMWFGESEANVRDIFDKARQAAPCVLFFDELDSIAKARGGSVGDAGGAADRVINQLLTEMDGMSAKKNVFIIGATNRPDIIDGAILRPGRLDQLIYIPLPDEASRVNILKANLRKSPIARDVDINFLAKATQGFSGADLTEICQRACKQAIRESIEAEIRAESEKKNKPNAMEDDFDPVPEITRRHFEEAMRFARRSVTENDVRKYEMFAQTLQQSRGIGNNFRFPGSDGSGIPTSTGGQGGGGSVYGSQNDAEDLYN
T1 sequence (P55072 whole entry): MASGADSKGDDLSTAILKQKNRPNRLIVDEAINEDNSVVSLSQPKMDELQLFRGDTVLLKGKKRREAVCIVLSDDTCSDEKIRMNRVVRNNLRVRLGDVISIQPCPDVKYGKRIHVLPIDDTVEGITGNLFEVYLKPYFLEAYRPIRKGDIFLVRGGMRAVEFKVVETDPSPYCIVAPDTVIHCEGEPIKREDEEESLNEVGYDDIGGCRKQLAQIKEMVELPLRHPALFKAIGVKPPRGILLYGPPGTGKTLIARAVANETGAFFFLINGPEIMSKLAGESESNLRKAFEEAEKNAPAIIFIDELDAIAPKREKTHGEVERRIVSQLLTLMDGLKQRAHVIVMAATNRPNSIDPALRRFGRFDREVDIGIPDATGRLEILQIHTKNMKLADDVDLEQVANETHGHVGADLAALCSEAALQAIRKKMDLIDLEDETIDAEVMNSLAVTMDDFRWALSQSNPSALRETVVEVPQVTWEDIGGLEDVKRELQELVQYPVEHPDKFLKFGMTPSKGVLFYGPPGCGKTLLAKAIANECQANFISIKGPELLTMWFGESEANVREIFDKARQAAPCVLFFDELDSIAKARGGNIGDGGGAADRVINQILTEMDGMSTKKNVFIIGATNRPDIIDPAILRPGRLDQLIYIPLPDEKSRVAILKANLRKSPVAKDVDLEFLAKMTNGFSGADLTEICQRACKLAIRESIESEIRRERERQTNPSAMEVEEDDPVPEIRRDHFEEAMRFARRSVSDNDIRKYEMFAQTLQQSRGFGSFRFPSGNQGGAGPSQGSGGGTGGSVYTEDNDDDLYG

SMILES | IC50 ([1]; p97 enzyme, Suppl. Fig. 11D) [µM] | EC50 [2] [µM] | effect on adult worms [2] | IC50 ([3]; p97 enzyme, Suppl. Fig. 11D) [µM] | Screen Inhibition [4] [%] | IC50 [1, 7] [µM] | IC50 [3, 8] [µM] | inhibition of S. mansoni p97 function in the screen [4] | other results
O=C(C#Cc1ccccc1)Nc1ccc2oc(-c3ccccc3)nc2c1 [Compound 245, 3-phenyl-N-(2-phenylbenzo[d]oxazol-5-yl)propiolamide] | 3.8 ± 0.19 | 12 | did cause detachment, it did not lead to parasite death | > 100 | 36 |  |  |  | Fold Selectivity [1, 6]: > 30
O=C(C#Cc1ccccc1)Nc1ccc2oc(-c3ccncc3)nc2c1 [Compound 242, 3-phenyl-N-(2-(pyridin-4-yl)benzo[d]oxazol-5-yl)propiolamide] | 1.4 ± 0.11 | 9.9 | led to death in adult parasites; also recorded: ultimately leading to their death | 12 ± 0.31 | 47 |  |  |  | Fold Selectivity [1, 6]: 8.6; time to detachment of adult worms in culture [2]: ≤ 48 h
O=C(/C=C\c1ccccc1)Nc1ccc2oc(-c3ccccc3)nc2c1 [Compound 324, (Z)-3-phenyl-N-(2-phenylbenzo[d]oxazol-5-yl)acrylamide] |  |  |  |  | 1.1 | > 100 | > 100 | inactive | 
O=C(C#Cc1ccccc1)Nc1ccc2oc(-c3ccccn3)nc2c1 [Compound 243, 3-phenyl-N-(2-(pyridin-2-yl)benzo[d]oxazol-5-yl)propiolamide] | 2.1 ± 0.75 |  | led to death in adult parasites; also recorded: ultimately leading to their death | 20 ± 0.54 | 46 | 2.1 ± 0.75 | 20 ± 0.54 |  | GI50 ([5]; HepG2, 72 h): 5.6 µM; IC50 ([5]; HepG2, 72 h): 9.6 µM; GI50 ([5]; HepG2, read-out: HepG2 GI50): 5.6 µM; IC50 ([5]; HepG2, read-out: HepG2 IC50): 9.6 µM; Fold Selectivity [1]: 9.5; IC50 ([1]; Sm p97, 100 μM – 1 nM, Suppl. Fig. 9C): 2.1 ± 0.75 µM; IC50 ([1]; recombinant parasite enzyme, 100 μM-1 nM, Fig. 4D): 2.1 ± 0.75 µM; time to detachment of adult worms in culture [2]: ≤ 48 h; EC50 ([2]; adult parasites, fraction of worms attached, 72 hours of drug treatment, in culture until D5, 50 μM - 10 nM, Suppl. Fig. 9C): 3.5 µM; IC50 ([3]; Hs p97, 100 μM – 1 nM, Suppl. Fig. 9C): 20 ± 0.54 µM; IC50 ([3]; recombinant human enzyme, 100 μM-1 nM, Fig. 4D): 20 ± 0.54 µM
O=C(CCc1ccccc1)Nc1ccc2oc(-c3ccccn3)nc2c1 [Compound 326, 3-phenyl-N-(2-(pyridin-2-yl)benzo[d]oxazol-5-yl)propanamide] |  |  |  |  | 2.2 | > 100 | > 100 | inactive | 
O=C(C#Cc1ccccc1)Nc1ccc2oc(-c3cccnc3)nc2c1 [Compound 244, 3-phenyl-N-(2-(pyridin-3-yl)benzo[d]oxazol-5-yl)propiolamide] | > 100 | 25 | did not have any adverse effects on worm health and survival | > 100 | 16 |  |  |  | activity on the enzyme ([1]; schistosome p97): minimal activity on the enzyme
O=C(C=Cc1ccccc1)Nc1ccc2oc(-c3ccccc3)nc2c1 [Compound 135, N-(2-phenylbenzo[d]oxazol-5-yl)cinnamamide] |  |  |  |  | 1.1 | > 100 | > 100 | inactive | 
